# Measurements from ChEMBL document CHEMBL3526121, “Pharmacokinetics, bioavailability, tissue distribution, excretion, and metabolite identification of methoxyflavones in Kaempferia parviflora extract in rats” (Drug Metab Dispos, 2012).
# Tests used:
# [1] = Tmax in Wistar rat testes at 750 mg/kg, po by LC-MS/MS analysis; type: ADME, organism-based, Testis; set-up: dose 750 mg/kg, route oral
# [2] = system: Rattus norvegicus; assay: Elimination rate constant in Wistar rat at 250 mg/kg, iv by HPLC analysis; type: ADME, organism-based; set-up: dose 250 mg/kg, route intravenous; settings: in vivo
# [3] = Clearance in Wistar rat at 250 mg/kg, iv by HPLC analysis; type: ADME, organism-based; set-up: dose 250 mg/kg, route intravenous; settings: in vivo
# [4] = system: Rattus norvegicus; assay: Volume of distribution in Wistar rat at 250 mg/kg, po by HPLC analysis; type: ADME, organism-based; set-up: dose 250 mg/kg, route oral; settings: in vivo
# [5] = Drug excretion in Wistar rat feces at 750 mg/kg, po after up to 72 hrs by HPLC-UV analysis; type: ADME, organism-based; set-up: dose 750 mg/kg, route oral; settings: faeces, read-out: Drug excretion
# [6] = Cmax in Wistar rat testes at 750 mg/kg, po by LC-MS/MS analysis; type: ADME, organism-based, Testis; set-up: dose 750 mg/kg, route oral
# [7] = Tmax in Wistar rat liver at 750 mg/kg, po by LC-MS/MS analysis; type: ADME, organism-based; set-up: dose 750 mg/kg, route oral
# [8] = system: Brain; assay: AUC (0.083 to 4 hrs) in Wistar rat brain at 750 mg/kg, po by LC-MS/MS analysis; type: ADME, organism-based; set-up: time 0.083-4 hr, dose 750 mg/kg, route oral; settings: in vivo
# [9] = Elimination rate constant in Wistar rat at 250 mg/kg, po by HPLC analysis; type: ADME, organism-based; set-up: dose 250 mg/kg, route oral; settings: in vivo, read-out: Ke (converted)
# [10] = Drug excretion in Wistar rat urine at 750 mg/kg, po after 24 to 72 hrs by HPLC-UV analysis; type: ADME, organism-based; set-up: dose 750 mg/kg, route oral; settings: in vivo
# [11] = Drug excretion in Wistar rat urine at 750 mg/kg, po after 12 hrs by HPLC-UV analysis; type: ADME, organism-based; set-up: dose 750 mg/kg, route oral; settings: in vivo
# [12] = system: Rattus norvegicus; assay: Absorption rate constant in Wistar rat at 250 mg/kg, po by HPLC analysis; type: ADME, organism-based; set-up: dose 250 mg/kg, route oral; settings: in vivo
# [13] = system: Kidney; assay: AUC (0.083 to 4 hrs) in Wistar rat kidney at 750 mg/kg, po by LC-MS/MS analysis; type: ADME, organism-based; set-up: time 0.083-4 hr, dose 750 mg/kg, route oral; settings: in vivo
# [14] = Cmax in Wistar rat kidney at 750 mg/kg, po by LC-MS/MS analysis; type: ADME, organism-based; set-up: dose 750 mg/kg, route oral
# [15] = Drug excretion in Wistar rat urine at 750 mg/kg, po after up to 72 hrs by HPLC-UV analysis; type: ADME, organism-based; set-up: dose 750 mg/kg, route oral; settings: read-out: Drug excretion
# [16] = Drug metabolism in Wistar rat assessed as excretion of 3,5-dihydroxy-2-(3-hydroxy-4-methoxyphenyl)-7-methoxy-4H-chromen-4-one in feces at 750 mg/kg, po by LC-MS and LC-MS/MS analysis; type: ADME, organism-based; set-up: dose 750 mg/kg, route oral; settings: in vivo
# [17] = Drug metabolism in Wistar rat assessed as excretion of 5-hydroxy-2-(3-hydroxy-4-methoxyphenyl)-3,7-dimethoxy-4H-chromen-4-one in urine/feces at 750 mg/kg, po by LC-MS and LC-MS/MS analysis; type: ADME, organism-based; set-up: dose 750 mg/kg, route oral; settings: in vivo
# [18] = AUC in Wistar rat at 250 mg/kg, iv by HPLC analysis; type: ADME, organism-based; set-up: dose 250 mg/kg, route intravenous; settings: plasma
# [19] = Cmax in Wistar rat brain at 750 mg/kg, po by LC-MS/MS analysis; type: ADME, organism-based; set-up: dose 750 mg/kg, route oral
# [20] = AUC in Wistar rat at 250 mg/kg, po by HPLC analysis; type: ADME, organism-based; set-up: dose 250 mg/kg, route oral; settings: plasma
# [21] = Tmax in Wistar rat kidney at 750 mg/kg, po by LC-MS/MS analysis; type: ADME, organism-based; set-up: dose 750 mg/kg, route oral
# [22] = AUC (0.083 to 4 hrs) in Wistar rat testes at 750 mg/kg, po by LC-MS/MS analysis; type: ADME, organism-based, Testis; set-up: time 0.083-4 hr, dose 750 mg/kg, route oral; settings: in vivo
# [23] = system: Rattus norvegicus; assay: Half life in Wistar rat at 250 mg/kg, iv by HPLC analysis; type: ADME, organism-based; set-up: dose 250 mg/kg, route intravenous; settings: in vivo
# [24] = Cmax in Wistar rat lung at 750 mg/kg, po by LC-MS/MS analysis; type: ADME, organism-based; set-up: dose 750 mg/kg, route oral
# [25] = Drug excretion in Wistar rat feces at 750 mg/kg, po after 18 to 24 hrs by HPLC-UV analysis; type: ADME, organism-based; set-up: dose 750 mg/kg, route oral; settings: in vivo
# [26] = Tmax in Wistar rat lung at 750 mg/kg, po by LC-MS/MS analysis; type: ADME, organism-based; set-up: dose 750 mg/kg, route oral
# [27] = system: Liver; assay: AUC (0.083 to 4 hrs) in Wistar rat liver at 750 mg/kg, po by LC-MS/MS analysis; type: ADME, organism-based; set-up: time 0.083-4 hr, dose 750 mg/kg, route oral; settings: in vivo
# [28] = Drug excretion in Wistar rat feces at 750 mg/kg, po after 12 hrs by HPLC-UV analysis; type: ADME, organism-based; set-up: dose 750 mg/kg, route oral; settings: in vivo
# [29] = Cmax in Wistar rat at 250 mg/kg, po by HPLC analysis; type: ADME, organism-based; set-up: dose 250 mg/kg, route oral; settings: in vivo
# [30] = Oral bioavailability in Wistar rat at 250 mg/kg by HPLC analysis; type: ADME, organism-based; settings: in vivo
# [31] = Tmax in Wistar rat brain at 750 mg/kg, po by LC-MS/MS analysis; type: ADME, organism-based; set-up: dose 750 mg/kg, route oral
# [32] = Clearance in Wistar rat at 250 mg/kg, po by HPLC analysis; type: ADME, organism-based; set-up: dose 250 mg/kg, route oral; settings: in vivo
# [33] = Cmax in Wistar rat liver at 750 mg/kg, po by LC-MS/MS analysis; type: ADME, organism-based; set-up: dose 750 mg/kg, route oral
# [34] = Drug metabolism in Wistar rat assessed as excretion of 2-(3-hydroxy-4-methoxyphenyl)-3,5,7-trimethoxy-4H-chromen-4-one in urine at 750 mg/kg, po by LC-MS and LC-MS/MS analysis; type: ADME, organism-based; set-up: dose 750 mg/kg, route oral; settings: in vivo
# [35] = Half life in Wistar rat at 250 mg/kg, po by HPLC analysis; type: ADME, organism-based; set-up: dose 250 mg/kg, route oral; settings: in vivo
# [36] = Tmax in Wistar rat at 250 mg/kg, po by HPLC analysis; type: ADME, organism-based; set-up: dose 250 mg/kg, route oral; settings: in vivo
# [37] = system: Lung; assay: AUC (0.083 to 4 hrs) in Wistar rat lung at 750 mg/kg, po by LC-MS/MS analysis; type: ADME, organism-based; set-up: time upper 4 hr, time lower 0.083 hr, dose 750 mg/kg, route oral; settings: in vivo
structure (smiles),measurement,setting,value
COc1cc(OC)c2c(=O)c(OC)c(-c3ccc(OC)c(OC)c3)oc2c1,Tmax,[1],2.36 h
same,Ke,[2],0.61 h⁻¹
same,clearance,[3],0.359 mL/min
same,Vd,[4],2637.13 mL
same,dose excreted at 72 h,[5],0.79%
same,Cmax,[6],500 ng/g
same,Tmax,[7],3.43 h
same,AUC,[8],0.76 µg·h/g
same,k el,[9],7.78e-05 s⁻¹
same,Drug excretion,[10],Active
same,Drug excretion,[11],Active
same,ka,[12],1.23 h⁻¹
same,AUC,[13],2.03 µg·h/g
same,Cmax,[14],1000 ng/g
same,dose excreted at 72 h,[15],1.06%
same,Drug metabolism,[16],metabolite_detected
same,Drug metabolism,[17],metabolite_detected
same,AUC,[18],76800 ng·h/mL
same,Cmax,[19],260 ng/g
same,AUC,[20],3650 ng·h/mL
same,Tmax,[21],3.43 h
same,AUC,[22],1.01 µg·h/g
same,t1/2,[23],2.36 h
same,Cmax,[24],2230 ng/g
same,Drug excretion,[25],Active
same,Tmax,[26],4.8 min
same,AUC,[27],9.07 µg·h/g
same,Drug excretion,[28],Active
same,Cmax,[29],550 ng/mL
same,bioavailability,[30],3.32%
same,Tmax,[31],3.14 h
same,CL/F,[32],10.4 mL/min
same,Cmax,[33],3100 ng/g
same,Drug metabolism,[34],metabolite_detected
same,half-life,[35],3.12 h
same,Tmax,[36],1.71 h
same,AUC,[37],1.6 µg·h/g
